What all share (type): physicochemical
Data set [1] in a line: pH of MgSO4 grades.
Data set [2] can be described thus: Volatilization measurements (ammonia release, 2 L diffusion kit, Draeger tube). Conditions: YaraVera Amidas product comprising 462 ppm nBTPT, treated with stabilizer (FIG. 1, Table 1). An excerpt:
1. Volatilization Measurements (Ammonia Release 2 L Diffusion Kit) […] Through the lid, a […] tube is placed for the measurement of vol % ammonia. The […] tube turns from yellow to bleu/purple when ammonia is absorbed by the tube. The amount of vol % ammonia released can be followed in time. Experiment 1 defines the problem.

Data set [3] can be described thus: Stability of nBTPT on urea ammonium sulphate (YaraVera Amidas) during storage, HPLC analysis of nBTPT content. Conditions: for Stabilizing effect on nBTPT (MgSO4/MgO combinations): Experiment 4: YaraVera Amidas product comprising 462 ppm nBTPT (FIG. 4). Here is the method:
For lab scale experiments, 1.2 kg of solid fertilizer material was added to a lab scale drum. […] A residence time of 10 minutes was applied and the rotating speed of the drum was consequently the same in each experiment. […] Before use, the moisture-repellent coating was preheated to 80° C. Larger scale experiments with amounts up to 40 kg of fertilizer material were performed in a concrete mixer. The samples were stored under several conditions, dependent on the type of samples: • Bagged at room temperature (18-25° C.) • Bagged at 40° C. • Open to air at room temperature (18-25° C.) 3.

Entries after “also recorded” stand apart in the source; their conditions may differ.

Take `O=S(=O)([O-])[O-].[Mg+2]` [MgSO4 99.999%, MgSO4 anhydrous, 99.999%]: the pH in data set [1] came to 6.1.
For the molecule `[O]=[Ca]` [CaO, calcium oxide], the Ammonia release result in data set [2] is listed as “producing ammonia”.
On to `O=S(=O)([O-])[O-].[Na+].[Na+]` [Na2SO4, reference compound], for which the “nBTPT stability on the YaraVera Amidas product” value in data set [3] (Experiment 3: open plastic containers at room temperature for 21 days, 462 ppm nBTPT (FIG. 3)) was “negative effect on the stability of nBTPT”.
In data set [1], `O=S(=O)([O-])[O-].[Mg+2]` [MgSO4 99.5%, MgSO4 anhydrous, >99.5%] gave a pH of 8.5.
For the molecule `O=S(=O)([O-])[O-].[Mg+2]` [MgSO4, magnesium sulphate], the “Stabilizing effect on nBTPT in the presence of UAS” value in data set [3] (Experiment 2: open to air at room temperature 40 days (FIG. 2A) and in bags at 40 °C 8 days (FIG. 2B), 462 ppm nBTPT) is “comparable with the effect of the prior art compound (CaO)”. In data set [3], the “Stabilizing effect on nBTPT (MgSO4/MgO combinations)” value is “little effect”. In addition, the “Stabilizing effect at higher level of magnesium sulphate” value in data set [3] (more than 1 weight % magnesium sulphate in the composition) is “did not produce a proportionally better stabilizing effect”. Also, the Ammonia release result in data set [2] is given as “no ammonia release; also recorded: no ammonia is generated”.
Regarding `[O]=[Mg]` [MgO, magnesium oxide, reference compound], the “Stabilizing effect on nBTPT (MgSO4/MgO combinations)” value in data set [3] is listed as “more effective than CaO”. In data set [2], the Ammonia release entry is recorded as “producing ammonia”.
As for `O=S(=O)([O-])[O-].[Ca+2]` [CaSO4, CaSO4 anhydrous], the Ammonia release entry in data set [2] is reported as “no ammonia release”.

These data come from patent US11365161B2, “Urea ammonium sulphate-based composition and method for the manufacture thereof” (YARA INTERNATIONAL ASA, priority 2018, dated 2022).
